How the values were obtained:
[1] = In-vitro human microsomal stability; assay type: in vitro ADME; conditions: human microsomes, 1 microMolar compound, at T = 60 minutes
Procedure: Human and mouse microsomal stability was determined for select compounds following the method of Houston (Houston, J. B; Biochem. Pharmacol. 47, (1994),1469).
1 μM concentration of compound and separate human and mouse microsomes (0.3 mg/mL, BD bioscience) were used in the in-vitro assay. To ensure proper energy supply for microsomal degradation of compound, an energy regenerating system comprised of 100 mM potassium phosphate, 2 mM NADPH, 3 mM MgCl2, pH=7.4. and the microsomal protein is added to each sample and the resulting suspension is then incubated in duplicate for 60 min at 37° C. in a rotary shaker. A control is run for each test agent in duplicate omitting NADPH to detect NADPH-free degradation. At T=0 and T=60 min., an aliquot is removed from each experimental and control reaction and then mixed with an equal volume of ice-cold Stop Solution (consisting of 0.3% acetic acid in acetonitrile containing haloperidol and diclofenac as internal standards). […] The samples are then centrifuged to remove precipitated protein, and the supernatants are then analyzed by LC-MS/MS to determine the percentage of compound remaining. […] After separation on a C18 reverse phase HPLC column (Agilent, Waters, or equivalent) using an acetonitrile-water gradient system, peaks were analyzed by mass spectrometry (MS) using ESI ionization in MRM mode.

[2] = tested on: spinal nerve ligation (SNL) mouse model; assay: Intrathecal (i.t.) SNL-mouse model of neuropathic pain, von Frey mechanical allodynia; assay type: in vivo, FVB male mice
Text: To measure the neuropathic pain inhibiting affects of the MMP inhibitors of the present invention, the spinal nerve ligation (SNL) mouse model was run on a select number of compounds. This model which began with the work of Bennet and coworkers (Bennet, G. J. et al. Pain, 33, (1988), 87-107) and was optimized by Kim and Chung (Kim, S. H.; Chung, J. M. Pain, 50, (1992), 355-363) entails first, under magnification, the removal of one-third of the transverse process and then identifying and then dissecting free the L5 spinal nerve from the adjacent L4 spinal nerve in the mouse. The L5 spinal nerve is then tightly ligated using 6.0 silk suture. The nerve injury leads to hyperalgesia which manifests itself by enhanced responses to mechanical, heat and/or cooling stimuli. In this case, mechanical hyperalgesia is tested via Von Frey monofilaments in which filaments of varying thicknesses and bending force are individually applied to the plantar surface of the foot of the mouse. The threshold force necessary for paw withdrawal decreases dramatically after the nerve surgery. Potent pain inhibitors will reverse this affect resulting in greater force needing to be applied to cause the rodent paw to withdrawal.
Following preoperative baseline (Day −2) paw threshold measurement, FVB male mice were subjected to SNL injury (Day −1). The next day (Day 0) after SNL surgery, the animals were tested for post-operative baseline threshold measurements for mechanical allodynia; and the animals were then randomly assigned to one of 3 treatment groups (see Table 9). Over the course of the study, paw withdrawal threshold of these animals was measured in response to mechanical stimulation using the von Frey Monofilament Test.
To avoid systemic effects of the MMP inhibitors, the MMP inhibitors of the present invention were delivered into the cerebral spinal fluid (CSF) space around lumbosacral spinal cord via intrathecal (i.t.) administration, with the idea of targeting MMPs in the DRG, spinal cord, and spinal CSF. Intrathecal MMP inhibitor administration could then target not only spinal cord cells but also DRG cells. Each intrathecal (i.t.) injection was carried out according to the technique of Hylden and Wilcox (Hylden J L, Wilcox G L. Eur. J. Pharmacol., 67, (1980), 313-6) 5.2 mg of each of the MMP inhibitors were first dissolved in 140 microliters of DMSO and then put into 1260 microliters of 0.5% hydroxypropyl cellulose (HPC) in water to make a fine suspension composed of compound in 10% DMSO-0.5% hydroxypropyl cellulose. 10 microliters of the mixture was injected into the intrathecal space of male FVB mice (weighing 22-25 grams each and obtained from the Jackson Laboratories, Bar Harbor, Me.), by lumbar puncture in a volume of 10 μl/mouse using a Hamilton microsyringe via a 30 gauge needle inserted between lumbar vertebrae 5 and 6. In brief, each animal was held firmly by the pelvic girdle in one hand, while the needle was inserted into the tissue on the right side of the L5 or L6 spinous process. The needle was moved forward and slipped into the groove between the spinous process and transverse process and gently moved forward to the intervertebral space at ˜10° angle. As the needle was inserted (˜0.5 cm) within the vertebral column a tail flick was evident, and the solution was then injected.
Tactile Allodynia Test. Mechanical allodynia was measured using the calibrated von Frey filaments (Semmes-Weinstein monofilaments; Stoelting, Wood Dale, Ill., U.S.A.). The plantar surface of the left injured paw of each animal was tested as described by Chaplan et al. (Journal of Neuroscience Methods, 53, (1994), 55-63). The Fifty percent paw withdrawal threshold response was determined by sequentially increasing or decreasing the stimulus strength according to the “up-down method” of Dixon (Annual Review Pharmacology Toxicology, 20, (1980), 441-462). […]

[3] = cited from earlier work

- Mean Remaining Parent with NADPH (%) ([1]; with NADPH): 86%
- Mean Remaining Parent without NADPH (%) ([1]; without NADPH (control)): 89%
Structure (SMILES): Cc1ccc(C#Cc2ccc(S(=O)(=O)N[C@H](Cc3c[nH]c4ccccc34)C(=O)O)s2)cc1 [Compound 5, (R)-3-(1H-Indol-3-yl)-2-(5-p-tolylethynyl-thiophene-2-sulfonylamino)-propionic acid]
- Paw withdrawal threshold, mean, Day 5 ([2]; i.t. 10 μl/mouse daily day 1-6): 0.079 grams
- Paw withdrawal threshold, mean, Day 7 ([2]; i.t. 10 μl/mouse daily day 1-6): 0.190 grams
- Paw withdrawal threshold, mean, Day 1 ([2]; i.t. 10 μl/mouse daily day 1-6, testing 2 hr after first i.t. injection): 0.098 grams
- Paw withdrawal threshold, mean, Day 0 Postoperative Baseline ([2]; i.t. study, post operative injury baseline, before treatment): 0.050 grams
- Paw withdrawal threshold, mean, Day(-2) Pre-operative Baseline ([2]; i.t. study, testing prior to SNL injury, before treatment): 1.265 grams
- Metabolites found in human blood [3]: formation of several hydroxylated metabolites

From patent US8765953B2, “Compounds and methods for the treatment of pain and other diseases” (Aquilus Pharmaceuticals, Inc., priority 2008, dated 2014)
